The source of these data is ChEMBL document CHEMBL1146163 (Bioorg Med Chem Lett, 2006).

Each structure is given as a SMILES string. Activity calls are given as the source filed them. The rule behind the calls is not given here. Bounds are passed on as bounds.

Data set [1] deals with T1, Peroxisome proliferator-activated receptor alpha (Homo sapiens) (UniProt Q07869).
T1 sequence (whole entry): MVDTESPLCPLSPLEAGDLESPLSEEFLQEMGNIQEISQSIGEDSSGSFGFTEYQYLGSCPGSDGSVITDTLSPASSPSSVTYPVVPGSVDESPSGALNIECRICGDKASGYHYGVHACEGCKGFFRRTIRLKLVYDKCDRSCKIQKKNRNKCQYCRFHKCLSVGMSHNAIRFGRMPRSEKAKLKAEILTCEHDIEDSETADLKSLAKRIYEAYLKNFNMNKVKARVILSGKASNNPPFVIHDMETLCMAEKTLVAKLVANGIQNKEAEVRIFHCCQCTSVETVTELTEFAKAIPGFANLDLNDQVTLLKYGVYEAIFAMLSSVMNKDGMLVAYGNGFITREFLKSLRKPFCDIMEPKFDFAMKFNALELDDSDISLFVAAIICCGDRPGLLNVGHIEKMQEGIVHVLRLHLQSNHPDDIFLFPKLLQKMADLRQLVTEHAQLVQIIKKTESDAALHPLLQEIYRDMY
Nature of the data set: Activity at human PPARalpha expressed in CV1 cells using GAL4 chimeric system relative to control. The note with it: CV-1. The data set is classed as cell-based.

The target of data set [2] is T1, Peroxisome proliferator-activated receptor alpha (Homo sapiens). The data set can be described thus: (§1) Displacement of tritium labeled ligand from human PPARalpha by SPA assay.
Data set [3] addresses T2, Peroxisome proliferator-activated receptor delta (Homo sapiens) (UniProt Q03181).
T2 sequence (whole entry): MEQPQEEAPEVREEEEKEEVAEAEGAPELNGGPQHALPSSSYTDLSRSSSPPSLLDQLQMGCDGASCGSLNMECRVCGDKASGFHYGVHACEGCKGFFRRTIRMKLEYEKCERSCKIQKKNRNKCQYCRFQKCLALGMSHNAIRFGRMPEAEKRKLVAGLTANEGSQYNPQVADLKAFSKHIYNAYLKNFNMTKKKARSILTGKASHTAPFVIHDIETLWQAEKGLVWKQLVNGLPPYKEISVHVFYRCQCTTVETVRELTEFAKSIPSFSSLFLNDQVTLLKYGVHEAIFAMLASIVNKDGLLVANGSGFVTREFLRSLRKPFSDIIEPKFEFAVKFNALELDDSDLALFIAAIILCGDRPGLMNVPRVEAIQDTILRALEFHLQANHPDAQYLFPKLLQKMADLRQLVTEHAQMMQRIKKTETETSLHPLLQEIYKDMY
The data set can be described thus: Activity at human PPARdelta expressed in CV1 cells by cotransfection assay relative to control. The data set is classed as cell-based. The note with it: CV-1.

Data set [4] concerns Rattus norvegicus. Nature of the data set: Effect on glucose normalization in po dosed ZDF rat after 7 days. Format: functional. The note with it: 168 h, read-out: MED.
For data set [5], the target named is T3, Peroxisome proliferator-activated receptor alpha (Homo sapiens, UniProt Q07869).
T3 sequence (Q07869 whole entry): T1 sequence (whole entry)
Described as §1.

Another data set deals with Mus musculus. Nature of the data set: Reduction of glucose level in db/db mouse at 30 mg/kg, po after 7 days relative to control. The data set is classed as functional. Set-up: scale not given: the % may be the effect or the level left.
Data set [6] has as its system Rattus norvegicus. The data set can be described thus: Reduction of glucose level in ZDF rat at 1 mg/kg, po after 7 days relative to control. The data set is classed as functional. Further details: scale not given: the % may be the effect or the level left.
The target in data set [7] is T4, Peroxisome proliferator-activated receptor gamma (Homo sapiens, UniProt P37231).
T4 sequence (P37231 whole entry): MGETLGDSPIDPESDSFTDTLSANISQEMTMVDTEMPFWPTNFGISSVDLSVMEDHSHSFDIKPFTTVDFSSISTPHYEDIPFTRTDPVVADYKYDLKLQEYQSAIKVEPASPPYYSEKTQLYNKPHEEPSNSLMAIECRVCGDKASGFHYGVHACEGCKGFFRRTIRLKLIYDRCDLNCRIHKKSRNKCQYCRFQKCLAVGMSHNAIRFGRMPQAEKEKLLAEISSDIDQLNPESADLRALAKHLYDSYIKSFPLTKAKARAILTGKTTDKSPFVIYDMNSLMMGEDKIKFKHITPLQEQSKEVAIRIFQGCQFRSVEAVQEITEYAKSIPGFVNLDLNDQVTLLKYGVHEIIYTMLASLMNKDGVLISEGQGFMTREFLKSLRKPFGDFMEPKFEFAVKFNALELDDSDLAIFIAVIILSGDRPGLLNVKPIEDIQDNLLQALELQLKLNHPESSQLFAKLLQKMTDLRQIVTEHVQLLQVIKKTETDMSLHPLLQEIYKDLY
Description: Displacement of tritium labeled ligand from human PPARgamma by SPA assay

The target of data set [8] is T5, Peroxisome proliferator-activated receptor delta (Homo sapiens, UniProt Q03181).
T5 sequence (Q03181 whole entry): T2 sequence (whole entry)
The data set can be described thus: Activity at PPARdelta.

The nature of data set [9]: Half life in F344 rat at 1 mg/kg, iv. Format: ADME, organism-based. Set-up: dose 1 mg/kg, route intravenous. The note with it: in vivo.
Data set [10] is described as follows: Clearance in F344 rat at 1 mg/kg, iv. Format: ADME, organism-based. Set-up: dose 1 mg/kg, route intravenous. The note with it: in vivo.
Data set [11] can be described thus: Half life in Beagle dog at 1 mg/kg, iv. The note with it: in vivo. Further details: dose 1 mg/kg, route intravenous. The data set is classed as ADME, organism-based, Canis lupus familiaris.
Data set [12] in a line: Volume of distribution in Beagle dog at 1 mg/kg, iv. Format: ADME, organism-based, Canis lupus familiaris. Further details: dose 1 mg/kg, route intravenous. The note with it: in vivo, read-out: Vdss.
In data set [13] the test system is Rattus norvegicus. The data set can be described thus: Reduction of plasma triglyceride level in ZDF rat at 1 mg/kg, po after 7 days relative to control. The data set is classed as functional. The note with it: 168 h.
Data set [14] is described as follows: Volume of distribution in F344 rat at 1 mg/kg, iv. Format: ADME, organism-based. Set-up: dose 1 mg/kg, route intravenous. The note with it: in vivo, read-out: Vdss.
Data set [15] can be described thus: Clearance in Beagle dog at 1 mg/kg, iv. Format: ADME, organism-based, Canis lupus familiaris. Further details: dose 1 mg/kg, route intravenous. The note with it: in vivo.
Data set [16] can be described thus: Tmax in Beagle dog at 10 mg/kg, po. Format: ADME, organism-based, Canis lupus familiaris. Further details: dose 10 mg/kg, route oral. The note with it: in vivo.
Data set [17] is described as follows: Oral bioavailability in F344 rat at 10 mg/kg, po. Format: ADME, organism-based. The note with it: in vivo.
The nature of data set [18]: Oral bioavailability in Beagle dog at 10 mg/kg, po. The data set is classed as ADME, organism-based, Canis lupus familiaris. The note with it: in vivo.
Data set [19] is described as follows: Tmax in F344 rat at 10 mg/kg, po. Format: ADME, organism-based. Set-up: dose 10 mg/kg, route oral. The note with it: in vivo.

For `CCCOC(=O)N1CCc2c(OCCc3nc(-c4ccc(-c5ccccc5)cc4)oc3C)ccc(CCC(=O)O)c2C1` [listing 1 of 2 here], the values for the Efficacy in [1] and in data set [3] were 27% and 36%, respectively. Also, in data set [2], the result was inactive.
`Cc1oc(-c2ccc(-c3ccccc3)cc2)nc1CCOc1ccc(CCC(=O)O)c(CNC(=O)OC(C)C)c1` gave an Efficacy in data set [1] of 52%.
On to `CCCOC(=O)N1CCc2c(OCCc3nc(-c4ccccc4)oc3C)ccc(CCC(=O)[O-])c2C1.[Na+]`, for which, in the data set on Rattus norvegicus [4], the minimal effective dose amounted to 0.28 mg/kg.
The EC50 is the concentration that produces a half-maximal response. The term IC50 denotes the concentration needed to halve the response being measured. `CC(C)(Oc1ccc(C(=O)c2ccc(Cl)cc2)cc1)C(=O)O` [FENOFIBRIC ACID]: in [1], the Efficacy was determined as 75%. In [5], the concentration for a half-maximal effect (EC50) is greater than 10000 nM and the IC50 was greater than 10000 nM.
As to `Cc1oc(-c2ccc(-c3ccccc3)cc2)nc1CCOc1ccc(CCC(=O)O)c2c1CCN(C(=O)OCC(C)(C)C)C2` [listing 1 of 2 here], in data set [1], the Efficacy was determined as 18%. In data set [2], the result was inactive and the Efficacy was less than 20%.
Turning to `Cc1oc(-c2ccc(-c3ccccc3)cc2)nc1CCOc1ccc(CCC(=O)[O-])c2c1CCN(C(=O)OCC(C)(C)C)C2.[Na+]`, the figures for the Activity with Mus musculus and in the data set with Rattus norvegicus [6] were 49% and 23%, respectively.
On to `Cc1oc(-c2ccccc2)nc1CCOc1ccc(CCC(=O)O)c2c1CCN(C(=O)OCC(C)C)C2`, for which the Activity with Mus musculus is reported as 27%. Also, the Efficacy in [1] was found to be 40%. In [5], this molecule showed a half-maximal effective concentration (EC50) of 1720 nM and an IC50 of 3420 nM. For the same molecule, the minimal effective dose in the data set on Rattus norvegicus [4] was 0.25 mg/kg. In data set [7], the EC50 was 8 nM and the midpoint of inhibition, the IC50, lay at 17 nM.
As for `Cc1c(C)c2c(c(C)c1O)CCC(C)(COc1ccc(CC3SC(=O)NC3=O)cc1)O2` (stereo not drawn), the Efficacy in data set [1] was found to be 0%. Further, in data set [2], the result was inactive.
Turning to `CCCOC(=O)N1CCc2c(OCCc3nc(-c4ccccc4)oc3C)ccc(CCC(=O)O)c2C1` [listing 1 of 2 here], in the data set with Mus musculus, the Activity turned out to be 62%. In [5], the EC50 was 561 nM and the half-inhibitory concentration (IC50) is 4680 nM. In [7], the concentration for a half-maximal effect (EC50) was found to be 12 nM and the IC50 was 11 nM.
Regarding `CCCOC(=O)N1CCc2c(OCCc3nc(-c4ccc(-c5ccccc5)cc4)oc3C)ccc(CCC(=O)O)c2C1` [listing 2 of 2 here], the EC50 is 2750 nM in data set [8], 2390 nM in [5] and 3 nM in data set [7]. For the same molecule, half-maximal inhibition in data set [7] (IC50) required 21 nM.
As to `Cc1oc(-c2ccccc2)nc1CCOc1ccc(C[C@H](Nc2ccccc2C(=O)c2ccccc2)C(=O)O)cc1`, the Efficacy in [1] is 66%.
With `CCCOC(=O)N1CCc2c(OCCc3nc(-c4ccccc4)oc3C)ccc(CCC(=O)O)c2C1` [listing 2 of 2 here], the Efficacy in data set [1] turned out to be 47%.
In the case of `C#CCOC(=O)N1CCc2c(OCCc3nc(-c4ccccc4)oc3C)ccc(CCC(=O)O)c2C1`, the concentration giving a half-maximal response (EC50) turned out to be 3020 nM in [8], 2780 nM in data set [5] and 77 nM in [7]. Also, the Activity in the data set with Mus musculus worked out at 37%. The Efficacy in data set [1] amounted to 38%; in data set [3], 65%. The 50% inhibitory concentration (IC50) in data set [5] was found to be 8400 nM; in data set [7] it was 24 nM.
In [7], `Cc1oc(-c2ccc(-c3ccccc3)cc2)nc1CCOc1ccc(CCC(=O)O)c2c1CCN(C(=O)OCC(C)(C)C)C2` [listing 2 of 2 here] returned an EC50 of 9 nM and an IC50 of 33 nM.
Regarding `CN(CCOc1ccc(CC2SC(=O)NC2=O)cc1)c1ccccn1` (stereo not drawn) [ROSIGLITAZONE], the Activity in the data set with Mus musculus is 29%. Moreover, the minimal effective dose in the data set with Rattus norvegicus [4] was 0.25 mg/kg.
As a reminder, the half-life is the time in which the quantity being followed falls by half. The term clearance denotes a measure of how efficiently the substance is removed, as volume per time. The term ED50 denotes the midpoint of the dose-response relation. The term Tmax denotes the time at which the peak concentration occurs. One may read the bioavailability as the share of a dose that reaches the circulation, judged against a reference dose that is usually intravenous. With `CCCOC(=O)N1CCc2c(OCCc3nc(-c4ccc(-c5ccccc5)cc4)oc3C)ccc(CCC(=O)[O-])c2C1.[Na+]`, the results for the half-life in [9] and in data set [11] were 5 h and 3.58 h, respectively. Moreover, the results for the clearance in data set [10] and in data set [15] were 1.37 mL/min/kg and 1.24 mL/min/kg, respectively. Also, the Vd in [12] turned out to be 0.38 L/kg; in [14], 0.59 L/kg. Further, in the data set with Mus musculus, the Activity was found to be 41%. In addition, the 50% effect level in the data set with Rattus norvegicus [13] (ED50) was put at a dose of 0.24 mg/kg. The figures for the time to peak (Tmax) in data set [16] and in data set [19] were 4 h and 1 h, respectively. The minimal effective dose in the data set on Rattus norvegicus [4] came out at 0.19 mg/kg. Besides, the bioavailability came to 35% in data set [17] and 37% in data set [18].
